The structures appear in SMILES notation.

Data on 99 compounds can be found in ChEMBL document CHEMBL3507680, “University of Dundee, Gates Library screen for HepG2 cell viability”.

A short description of this data set: Human HepG2 cell viability assay in 384 well format. To be noted: HepG2 cells, read-out: Inhibition. Also on record: dose 125 nL, time 70.5 hour; concentration not given beside the values. The data set is classed as toxicity, cell-based.

Take `OCc1nnn2c1CN(Cc1cccnc1)CCC2`: the cytotoxicity at 70.5 h is -115%. For `CCc1ccc(NC(=O)N2C[C@H]3CC[C@@]4(N=C(C)N(C)C4=O)[C@H]3C2)cc1` the value was 44.3%; for `CS(=O)(=O)N1C[C@@H]2COC[C@H](C(=O)Nc3cnccn3)[C@@H]2C1`, 59.3%. For `C[C@H]1C[C@@H]2CCN(C(=O)c3cnccn3)C[C@H]2O1` the value was -8.48%. In the case of `C[C@H]1C[C@@H]2CCN(C(=O)c3ccccn3)C[C@H]2O1`, the cytotoxicity at 70.5 h is -2.22%. For `C[C@@H]1C[C@H]2CN(C(=O)c3ccncn3)C[C@H]2O1` the value was -14.1%; for `CC(C)C(=O)N1CCN(C(=O)N(C)C)CC2(CC(=O)N(C)C2)C1` (centres undefined), 37.2%; for `Cc1ccc(CNC(=O)c2nn(C)c3c2CS(=O)(=O)CC3)o1`, -2.5%.

`Cn1nc(C(=O)NCc2cccs2)c2c1CCS(=O)(=O)C2`: the cytotoxicity at 70.5 h was -6.12%. Under `COc1ccccc1C(=O)Nc1c(F)c(C(=O)N2CCCC2)nn1C` stands -0.747%. Under `Cn1nc(C(=O)N2CCCC2)c(F)c1NC(=O)Cc1ccccc1` stands 28.2%. For `CC(C)CNC(=O)c1nn(C)c(NC(=O)Cc2ccccc2)c1F` the value was -9.39%. As to `O=C(CSc1ccccn1)NCc1ccc2c(c1)CCC(=O)N2`, the cytotoxicity at 70.5 h came out at 40.7%.

As for `CCOCCNS(=O)(=O)c1cc(C)c2nc(O)cc(C)c2c1`, the cytotoxicity at 70.5 h was found to be 21%.

With `Cc1nnc(SCC(=O)NCc2ccc3c(c2)CCC(=O)N3)n1C`, the cytotoxicity at 70.5 h is -3%. For `COc1cccc(OCCNS(=O)(=O)Cc2ccccc2)c1` the value was 19.4%; for `Cc1cccc(N(C)Cc2cc(=O)n3oc(C)cc3n2)c1`, 3.47%. Under `Cc1cc2nc(CN(C)c3ccc(Cl)cc3)cc(=O)n2o1` stands 22%.

For the compound `O=C1CNc2ncnc(N3CCN(Cc4ccccc4F)CC3)c2N1`, the cytotoxicity at 70.5 h is -7.69%. With `Cc1nn(CCNc2ncnc3c2NC(=O)CN3)c(C)c1Cl`, the cytotoxicity at 70.5 h is -8.12%. For `Cc1cc(C)n(CCNc2ncnc3c2NC(=O)CN3)n1`, the cytotoxicity at 70.5 h is -15.7%.

With `O=C1CNc2ncnc(Nc3cnn(Cc4ccccc4F)c3)c2N1`, the cytotoxicity at 70.5 h worked out at 27.9%.

For `COc1ccc(C(C)Nc2ncnc3c2NC(=O)CN3)cc1` (centres undefined), the cytotoxicity at 70.5 h was -14.1%. Consider `COc1cccc(C(C)Nc2ncnc3c2NC(=O)CN3)c1` (centres undefined), for which the cytotoxicity at 70.5 h is 11%.

Consider `Cc1ccccc1CN1CCN(c2ncnc3c2NC(=O)CN3)CC1`, for which the cytotoxicity at 70.5 h is -8.36%.

In the case of `O=C1CNc2ncnc(NCc3cccs3)c2N1`, the cytotoxicity at 70.5 h is -5.96%.

`O=C1CNc2ncnc(N3CCN(Cc4ccccc4)CC3)c2N1`: the cytotoxicity at 70.5 h is 12.6%.

For `COc1ccc(CNc2ncnc3c2NC(=O)CN3)cc1`, the cytotoxicity at 70.5 h is -6.06%.

With `CCCc1noc(C2CCN(S(=O)(=O)c3cccs3)CC2)n1`, the cytotoxicity at 70.5 h is -2.96%. For `CC(C)c1noc(C2CCN(C(=O)c3cccs3)CC2)n1` the value was -5.14%; for `CCS(=O)(=O)N1CCCCC1c1nc(C)no1` (centres undefined), -5.51%. Under `CCCc1noc(C2CCCCN2C(=O)C2CCCC2)n1` (centres undefined) stands 32.2%; under `c1ccc2c(N3CCSCC3)cnnc2c1`, -3.97%; under `CC1(C)CC(N2Cc3nc(N4CCCC4)ncc3C2=O)CC(C)(C)N1`, -13.5%. In the case of `CCS(=O)(=O)N1CCCCC1c1nc(CC(C)C)no1` (centres undefined), the cytotoxicity at 70.5 h is -8.14%. For `CCc1noc(C2CCCCN2C(=O)c2sccc2C)n1` (centres undefined) the value was 12.2%; for `CCCc1noc(C2CCN(C(=O)CCn3nc(C)cc3C)CC2)n1`, -7%. For `Cc1nn(C)c2cn(CC(=O)NC3CCSCC3)nc12` the value was -0.476%; for `COCCNC(=O)Cn1cc2c(n1)c(C)nn2C`, -9.77%; for `Cc1cc2[nH]c(O)nc2cc1NCc1ccccc1`, -12.7%.

On to `CC1CCC(N2Cc3nc(N)ncc3C2=O)CC1` (centres undefined), for which the cytotoxicity at 70.5 h was -12.4%. Under `CCc1noc(C2CCCCN2C(=O)c2cc(C)oc2C)n1` (centres undefined) stands 11.6%; under `Cc1ccc(CN(C)CC2(O)CCCN(C)C2)o1` (centres undefined), -2.94%. As to `CCn1nc(C)c2nn(CC(=O)NC3CCSCC3)cc21`, the cytotoxicity at 70.5 h came to 6.6%.

As for `Cc1nc2[nH]cnc(Nc3ccn(C)n3)c-2n1`, the cytotoxicity at 70.5 h was -4.89%. Under `Cn1cc(N2Cc3nc(N4CCOCC4)ncc3C2=O)cn1` stands -6.6%; under `CCn1cc(N2Cc3nc(N4CCCC4)ncc3C2=O)cn1`, 0.0553%. For `O=C(NCCCn1cccn1)c1nnc2ccccc2n1` the value was 2.8%; for `CCn1nc(C)c(CNC(=O)c2nnc3ccc(OC)cc3n2)c1C`, -3.67%. Under `COc1ccc2nnc(C(=O)NCC3CCCC3)nc2c1` stands -4.54%; under `C=CNC(=O)c1nnc2ccc(N3CCOCC3)cc2n1`, -10.8%. With `CN(C)c1ncc2c(n1)CN(C1CC(C)(C)NC(C)(C)C1)C2=O`, the cytotoxicity at 70.5 h is -6.77%. Under `CC1CCN(c2ncc3c(n2)CN(Cc2cccc(F)c2)C3=O)CC1` stands -0.149%; under `CCn1nc(C)c(NC(=O)c2cc(NC(=O)C3CC3)n(C)n2)c1C`, -5.29%; under `Cc1ccc(CNC(=O)c2cc(NC(=O)C3CC3)n(C)n2)o1`, -7.15%. For `CCn1nccc1CNc1nc(N)nc2c1nc(C)n2C` the value was 6.56%; for `Cc1nn(C)c2cn(C(C)C(=O)NCc3ccccn3)nc12` (centres undefined), -11.2%; for `CC1CCN(C(=O)c2cc(NC(=O)c3ccccc3)n(C)n2)CC1`, -14.1%. On to `Cn1nc(C(=O)N2CCCCCC2)cc1NC(=O)c1ccccc1`, for which the cytotoxicity at 70.5 h was -9.93%. In the case of `CC(=O)OCc1ccc(CN2CCCCCC2c2cc(C)no2)o1` (centres undefined), the cytotoxicity at 70.5 h is 24.7%. For `Cn1cccc1C(=O)N1CCCCC1c1ccn2ccnc2n1` (centres undefined) the value was -1.33%; for `CCc1noc(CCC(=O)N[C@@H]2CC[C@@H](n3ccnc3C)[C@@H]2O)n1`, -1.14%; for `CCc1noc(CCC(=O)N[C@@H]2CC[C@@H](n3ccnc3)[C@@H]2O)n1`, -8.61%. With `COc1ccccc1Oc1cncc(C2CCCN(CC(N)=O)C2)n1` (centres undefined), the cytotoxicity at 70.5 h was 11.9%.

As for `CC1(C2CCN(CC(N)=O)CC2)CN(Cc2ccccc2)C(=O)CO1` (centres undefined), the cytotoxicity at 70.5 h is -6.63%. For `CNC(=O)CN1CCC2(CC1)C[C@@H](O)[C@H](c1ccccc1)NC2=O` the value was -4.55%; for `CC(C)N1CCC2(CC1)C[C@@H](O)[C@H](c1ccccc1)NC2=O`, 9.43%; for `C[C@]1(O)CCN(Cc2ncccc2F)C[C@@H]1Oc1cccc(F)c1`, -3.05%. Regarding `O[C@@H]1CN(Cc2cnccn2)C[C@H]1Oc1ccccc1`, the cytotoxicity at 70.5 h was -6.26%. Under `Cc1nccc(C2CCCCN2Cc2ccccc2)n1` (centres undefined) stands -5%; under `CNC(=O)c1cn[nH]c1C1CCN(Cc2ccccc2OC)C1` (centres undefined), -8.12%; under `Cc1noc(C)c1-c1cccc(C2CCCNC2)n1` (centres undefined), 2.18%. As to `Oc1nc(N2CCCC2)nc2c1CCN(Cc1ccsc1)CC2`, the cytotoxicity at 70.5 h is -8.09%. Consider `Cn1cc(C(=O)N2CCCC(Cc3cncc4ccccc34)C2)cn1` (centres undefined), for which the cytotoxicity at 70.5 h was -1.78%.

For `Cc1cc(C)nc(C2CCN(C(=O)CCn3nnc4ccccc43)C2)n1` (centres undefined), the cytotoxicity at 70.5 h is -6.12%.

For the compound `CCCn1nccc1-c1cc(C2CCN(S(C)(=O)=O)CC2)ccn1`, the cytotoxicity at 70.5 h was -6.09%. For `CN1CC(=O)N(c2ccsc2)CC12CCN(S(=O)(=O)C1CC1)C2` (centres undefined) the value was -96.5%; for `c1cnc(NCc2nnn3c2CN(Cc2cccs2)CCC3)nc1`, -115%; for `CC(C)(CO)CNC(=O)c1cc(-c2cc[nH]n2)n2ccccc12`, -97.3%.

Consider `C1CC(CO[C@@H]2CC[C@H]3[C@H]2OCCN3CC2CC2)CCO1`, for which the cytotoxicity at 70.5 h is -82.4%.

With `C1CCC(CO[C@@H]2CC[C@H]3[C@H]2OCCN3CC2CCOCC2)C1`, the cytotoxicity at 70.5 h was -84.4%. For `CCO[C@@H]1CC[C@H]2[C@H]1OCCN2CC1CCC1` the value was -104%; for `COc1nn(C)c2c1CCCN(C(=O)c1ccc3ccccc3n1)C2`, 8.68%. On to `O=C(c1cnccn1)N1C[C@@H](OCc2ccncc2)[C@@H]2OCCC[C@@H]21`, for which the cytotoxicity at 70.5 h is -8.9%. For `O=C1COC2(CCN(Cc3ccco3)CC2)CN1` the value was -7.36%; for `CCOCC1CN(Cc2ccc(OC)cc2)Cc2nn(CC3CC3)cc21` (centres undefined), -5.83%.

`O=C(C1CCC1)N1C[C@@H]2CCN(c3cccnc3)C[C@@H]2C1`: the cytotoxicity at 70.5 h is 30%. For `Cn1ccnc1CN1C[C@@H]2[C@@H](C1)OCC(=O)N2CC1CCCC1` the value was -21.4%; for `c1csc(NCc2n[nH]c3c2CCN(CC2CC2)C3)n1`, -14.2%; for `O=C(CC1CCCC1)N1C[C@H](OCc2ccncc2)[C@H]2OCCC[C@H]21`, -27.1%.

With `CN(C)C(=O)CC1CC2(CCN(Cc3ccco3)CC2)c2ccccc21` (centres undefined), the cytotoxicity at 70.5 h is -27.6%. For the compound `O=C1COC2(CCN(CC3CC3)CC2)CN1c1cncnc1`, the cytotoxicity at 70.5 h is -13.3%.

For the compound `CNC(=O)CN1CCc2c(CNc3nccs3)n[nH]c2C1`, the cytotoxicity at 70.5 h is -10.9%.

`c1cncc(OC[C@@]23CCO[C@@H]2CCN(Cc2cccs2)C3)c1`: the cytotoxicity at 70.5 h is -100%. For `Cn1cc(C(=O)NCc2cn3c(n2)CN(CC2CCOC2)CC3)cn1` (centres undefined) the value was -110%; for `CNC(=O)CN1CCCC12CCN(Cc1c[nH]cn1)CC2`, -24.2%. For `CCOCC1CN(Cc2ccccn2)Cc2nn(CC3CC3)cc21` (centres undefined) the value was -4.99%. Regarding `COCC1c2c(cnn2C)CCN1Cc1ccc(C)cc1` (centres undefined), the cytotoxicity at 70.5 h was determined as 42.3%. With `COCC1c2c(cnn2C)CCN1Cc1cccc(C)c1` (centres undefined), the cytotoxicity at 70.5 h is -1.18%.
